What was measured:
Format in all cases: in vivo
SD rats = assay: Anti-epilepsy activity, scPTZ test, rat; conditions: for ED50: Rattus norvegicus, ip
From the text: In this experiment, each test compound sample was formulated as described in Biological Experimental Example I, and administered intraperitoneally to the test animals (mice; ICR or Rat; SD); Experimental animals, male ICR mice and male SD rats, were purchased from OrientBio or Nara biotech, Korea, and housed 4-5 mice per a cage for 4-5 days. The range of mice body weight was used between 19 and 26 grams and range of rats body weight was used between 100 and 130 grams. After Peak time (0.5, 1, 2 and 4 hr) from the administration, PTZ (Pentylenetetrazol) was administered subcutaneously in the concentration capable of inducing 97% intermittent convulsions (mice: 76-110 mg/kg·bw, 10 μl/g, or rats: 79-110 mg/kg·bw, 2 μl/g). If clonic seizure was not observed for at least 30 minutes in the PTZ administered animal, it can be considered that the test compound has anti-epilepsy activity. The median effective dose (ED50) is determined using 6 animals per a concentration (total three different concen-trations), and calculated by Litchfield and Wicoxon log-probit method which is a dose-response relationship.

Sprague-Dawley rats [1] = assay: Antiallodynic activity on Complete Freund's Adjuvant (CFA)-induced inflammatory pain model; conditions: intraperitoneally; for response vs control in vivo at 50 mg/kg / ED50: Rattus norvegicus, ip; for response vs control in vivo at 50 mg/kg: read-out: CFA-induced pain model efficacy %; for ED50: at peak time
Procedure: Male, Sprague-Dawley rats (210-250 g, Nara Bio, Korea) were habituated for 1 week before CFA injection and allowed free access to food and water throughout the experimentation. Room temperature and humidity were maintained at 24±2 and 50±10%, respectively.
CFA-induced inflammatory pain was induced by the procedure of Nagakura et al. (2003) and Gregory P. et al. (2010) with minor modifications. CFA (sigma, USA) was injected in the right plantar with a 100 ul volume under gaseous anesthesia with isoflurane. Sham controls were injected with 100 ul of saline and preparation of the vehicles without compound in the vehicle control group. Tactile sensitivity (Mechanical allodynia) was evaluated using von Frey monofilaments before and after treatment, and the animals were included in the study only if the withdrawal threshold value was less than 4 g. One week after surgery, CFA-infused treatment animals (n=4-6), sham-operated animals (n=12), and vehicle control animals (n=17) were tested for tactile sensitivity with von Frey monofilaments 3 trials for each animal. All Animals were placed in a stainless steel mesh chamber and habituated for 30 min in the test box. The tactile sensitivity for ipsilateral hind paw was measured using the up-and-down method (Dixon, 1980) with seven von Frey monofilaments (0.4, 1, 2, 4, 6, 8, and 15 g) to 3 trials. Tactile sensitivity test was followed by Dixon's method (Dixon, 1980). The 50% paw withdrawal threshold for each paw was calculated using the following formula: [Xth] log=[vFr] log+ky where [vFr] is the force of the last von Frey used, k=0.2249 which is the average interval (in log units) between the von Frey monofilaments, and y is a value that depends upon the pattern of withdrawal responses (Dixon, 1980).
Antiallodynic effect of compound was evaluated at the dose of 10-60 mg/kg (n=4-6), intraperitoneally administrated in a volume of 5 ul/g bw in a vehicle of 30% (v/v) PEG or 20% (v/v) Tween 80. The test was performed peak time of efficacy (0.5 or 1 hr) after compound administration.
The relative values compared to the sham (% control) were calculated and shown in Table 4, which show an antiallodynic effect of Compound 1 on CFA-induced pain model in rats.

ICR mice = assay: Chemical induced seizure model (PIC, picrotoxin); conditions: for ED50: Mus musculus, ip
Procedure: Picrotoxin (PIC) were used to induce the behavioral seizures in the experiments. Male ICR mice (purchased from Orient Bio Inc. Korea) of body weight 19-26 g (mice) were used for these studies. The test materials were administered intraperitoneal (ip) route in a volume of 10 ul/g (mice) weight in mice, respectively. Pharmacological effects of the test materials were evaluated to compared test groups (n=6) with a control group (n=6). Control group was administrated vehicle, only. The peak time was determined by administration of test material's random dose for 0.5, 1, 2, 4 hour. The time that the most protect was defined as a peak time and ED50 was determined by other dose administration at the peak time. Chemical (PIC) was dissolved in 0.9% saline and administered subcutaneously (s.c.) at its CD97 (convulsive dose 97%), the dose of Chemical (PIC) that produced clonic seizures in 97% into a loose fold of skin in the midline of the neck in a volume of 10 ul/g (mice) body weight. The animals were then transferred to observation cages and observed continuously for 45 min (PIC). Clonic seizure was elicited in approximately 97% of control group. Protection was defined as a complete absence of clonic seizure over the 45-min observation period. The effective dose of compound necessary to protect against generalized convulsive seizures to 50% of controls (i.e. ED50) was determined by log probit analysis using SPSS software program (SPSS Inc.). (Reference; White H. S., J. H. Woodhead, K. S. Wilcox, J. P. Stables, H. J. Kupferberg, and H. H. Wolf. General Principles; Discovery and Preclinical De-velopment of Antiepileptic Drugs. In: R. H. Levy, R. H. Mattson, B. S. Meldrum, and E. Perucca, eds. Antiepileptic Drugs, 5th Ed. Lippincott Williams & Wilkins, Philadelphia 2002: pp. 36-48.) The obtained results are shown in following Table 10.

Sprague-Dawley rats [2] = assay: Lithium-pilocarpine induced epilepsy test, prevention; conditions: for ED50: Rattus norvegicus, ip, read-out: Lithium pilocarpine model (pre) ED50; for Lithium pilocarpine model (pre) peak time: i.p.
Procedure: Male Sprague-Dawley rats (purchased from Orient Bio Inc. Korea) of body weight 175-200 grams were used for these studies and 3 rats per cage were housed for 4-5 days. On the day prior to SE, rats received 127 mg/kg lithium chloride (Sigma, St. Louis, Mo., U.S.A.) intraperitoneally (i.p.). Approximately 18-20 h following this treatment, rats were given an i.p. injection of CD97 dose (30-43 mg/kg) pilocarpine (Sigma). An i.p. injection of 2 mg/kg methyl-scopolamine (Sigma) was administered 30 min prior to pilocarpine to block the effects of the muscarinic agonist on peripheral cholinergic receptors. Test drugs were dissolved in 30% PEG 400 or 20% tween80 (Sigma).
The drugs were administered intraperitoneally (i.p.) in a volume of 2 ul/g body weight. Pharmacological effects of all of the test materials were evaluated to compare test groups (n=6) with a control group (n=6). Control group was administered vehicle only. The efficacy was measured 0.5, 1, 2, or 4 hours after the administration of the test material. The time point that the most animals were protected was defined as peak time and the ED50 was determined at peak time. The animals were then transferred to observation cages and observed continuously for 90 min. Seizure was elicited in approximately 95% of the control group. Protection was defined as complete absence of seizure grade 3-5 (Racine scale; Racine, 1972) over the 90-min observation period. The effective dose of the compound necessary to protect 50% of the animals against seizures compared to controls (i.e. ED50) was determined by a curve fitting program (Excel 2007, Microsoft).

SMILES | scPTZ test (ip) Peak time (SD rats) | scPTZ test (ip) efficacy % (SD rats; 40 mg/kg) [%] | response vs control in vivo at 50 mg/kg (Sprague-Dawley rats [1]) [%] | CFA-induced pain model Peak Time (Sprague-Dawley rats [1]) [h] | PIC(ip) Peak Time (ICR mice) [h] | ED50 (ICR mice) [mg/kg] | ED50 (Sprague-Dawley rats [2]) [mg/kg] | Lithium pilocarpine model (pre) peak time (Sprague-Dawley rats [2]) | ED50 (SD rats) [mg/kg] | ED50 (Sprague-Dawley rats [1]) [mg/kg]
C[C@@H](OS(N)(=O)=O)[C@H](O)c1ccccc1Cl [Example 2, (1R, 2R)-1-(2-chlorophenyl)-1-hydroxypropan-2-yl sulfamate] | 1 h | 33.3 | 23 | 1 | 1 | 24.1 | – | – | – | –
C[C@H](OS(N)(=O)=O)[C@@H](O)c1c(Cl)cccc1Cl [Example 7, (1S, 2S)-1-(2,6-dichlorophenyl)-1-hydroxypropan-2-yl sulfamate] | (0.5 h) | – | – | 1 | 0.5 | 28.5 | 23.3 | (0.5 h) | 10 | 31.9
C[C@@H](OS(N)(=O)=O)[C@H](O)c1c(Cl)cccc1Cl [Example 8, (1R, 2R)-1-(2,6-dichlorophenyl)-1-hydroxypropan-2-yl sulfamate] | (1 h) | – | – | 0.5 | 1 | 73.9 | 29.3 | (2 h) | 15.3 | 52.7
COCO[C@H](c1ccccc1Cl)[C@@H](C)OS(N)(=O)=O [Example 70, (1R, 2R)-1-(2-chlorophenyl)-1-(methoxymethoxy)propan-2-yl sulfamate] | (1 h) | – | 23.7 | 0.5 | – | – | 100 | (0.5 h) | 36 | –

From patent US10351519B2, “Sulfamate derivative compounds, processes for preparing them and their uses” (BIO-PHARM SOLUTIONS CO., LTD., priority 2016, dated 2019)
